Results on six compounds are retold here after US10494337B2, “(20S)-1-α,25-dihydroxy-24,24-difluoro-19-nor-vitamin D3 analogs and their pharmaceutical uses” (Wisconsin Alumni Research Foundation, priority 2015, dated 2019).

For data set [1], the system named is 24-hydroxylase gene reporter plasmid in rat osteosarcoma cells. In words: 24-hydroxylase (24-OHase) transcription, luciferase reporter. As to conditions: for EC50: Rattus norvegicus, read-out: 24OHase transcription ED50; for 24OHase transcription Ratio: average ratio of the 1α,25-(OH)2D3 ED50 to the ED50 for the analogue. (In general: In a reporter assay the amount or activity of a reporter protein is the signal.)
Protocol: (§1) The experiments were carried out in duplicate on two different occasions. […] The binding ratio is the average ratio of the 1□,25-(OH)2D3 Ki to the Ki for the analogue. ^bInduction of differentiation of HL-60 promyelocytes to monocytes by 1□,25-(OH)2D3 (1) and the synthesized vitamin D analogues. Differentiation state was determined by measuring the percentage of cells reducing nitro blue tetrazolium (NBT). The experiment was repeated in duplicate two times. […] The differentiation activity ratio is the average ratio of the 1□,25-(OH)2D3 ED50 to the ED50 for the analogue. ^cTranscriptional assay in rat osteosarcoma cells stably transfected with a 24-hydroxylase gene reporter plasmid. […] The luciferase activity ratio is the average ratio of the 1□,25-(OH)2D3 ED50 to the ED50 for the analogue.

For data set [2] the following is noted: background statement in the discussion, compared with 1,25-(OH)2D3; cited from earlier work.
Data set [3] has as its target T1, full-length recombinant rat vitamin D receptor (Rattus norvegicus, UniProt P13053).
T1 sequence (P13053 1-423): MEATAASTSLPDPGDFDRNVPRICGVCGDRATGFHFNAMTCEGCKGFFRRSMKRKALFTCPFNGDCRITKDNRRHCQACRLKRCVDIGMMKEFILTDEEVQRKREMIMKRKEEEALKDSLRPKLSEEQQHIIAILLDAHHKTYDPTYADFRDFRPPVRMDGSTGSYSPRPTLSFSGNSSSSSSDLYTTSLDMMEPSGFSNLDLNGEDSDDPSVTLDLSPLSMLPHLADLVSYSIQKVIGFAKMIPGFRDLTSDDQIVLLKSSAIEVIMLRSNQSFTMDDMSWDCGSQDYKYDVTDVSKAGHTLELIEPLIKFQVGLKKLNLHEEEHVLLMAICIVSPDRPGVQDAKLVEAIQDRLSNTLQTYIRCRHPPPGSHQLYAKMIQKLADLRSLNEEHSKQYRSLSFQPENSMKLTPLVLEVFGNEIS
Put plainly: Competitive VDR binding. Particulars: for VDR binding ratio: average ratio of the 1α,25-(OH)2D3 Ki to the Ki for the analogue.
Protocol: as §1

For data set [4] the following is noted: background statement in the discussion; cited from earlier work.
The next data set deals with HL-60 promyelocytes. In words: HL-60 differentiation (NBT reduction). As to conditions: for HL-60 differentiation ratio: average ratio of the 1α,25-(OH)2D3 ED50 to the ED50 for the analogue; for HL-60 differentiation activity, in words: compared with 1α,25-(OH)2D3.
Data set [5] can be described thus: Bone calcium mobilization in vivo (serum calcium). More on the design: species or system Sprague-Dawley rats. As to conditions: rats on 0.02% Ca diet, four consecutive intraperitoneal doses, serum calcium 24 hours after the last dose. From the text:
2. In vivo Studies. Bone calcium mobilization and intestinal calcium transport.
Male, weanling Sprague-Dawley rats were purchased from Harlan (Indianapolis, Ind.). The animals were group housed and placed on Diet 11 (0.47% Ca)+AEK oil for one week followed by Diet 11 (0.02% Ca)+AEK oil for 3 weeks. The rats were then switched to a diet containing 0.47% Ca^26 for one week followed by two weeks on a diet containing 0.02% Ca. Dose administration began during the last week on 0.02% Ca diet. Four consecutive intraperitoneal doses were given approximately 24 hours apart. Twenty-four hours after the last dose, blood was collected from the severed neck and the concentration of serum calcium determined as a measure of bone calcium mobilization. The first 10 cm of the intestine was also collected for the intestinal calcium transport analysis using the everted gut sac method.^25

Protocol for HL-60 promyelocytes: as §1

As to `C=C1/C(=C\C=C2/CCC[C@@]3(C)C2CCC3[C@H](C)CCCC(C)(C)O)C[C@@H](O)C[C@@H]1O` (stereo partly drawn) [Compound 1, 1α,25-dihydroxyvitamin D3, reference compound], the EC50 in data set [1] is 200 pM.

Regarding `C=C1[C@H](O)CC(=C/C=C2\CCC[C@@]3(C)C2CCC3[C@@H](C)CCCC(C)(C)O)C[C@H]1O` (stereo partly drawn) [Compound 2, 2-methylene-(20S)-1α,25-dihydroxy-19-nor vitamin D3, reference compound], the “intestinal calcium absorption of 2MD, in words” value in data set [2] is “not increased above that found with 1,25-(OH)2D3”. Further, in data set [3], the inhibition constant (Ki) (as a rule, a dissociation constant, usually derived from enzyme kinetics or from competition with a known ligand) was determined as 30 pM and the VDR binding ratio was found to be 1.3. Besides, in data set [1], the EC50 turned out to be 7 pM and the “24OHase transcription Ratio” value was 29. In addition, the “bone calcium mobilizing activity of 2MD, in words” value in data set [4] was “greatly increased bone calcium mobilizing activity”. Moreover, in the data set on HL-60 promyelocytes, the HL-60 differentiation ratio is recorded as 150.

Turning to `C=C1[C@H](O)CC(=C/C=C2\CCC[C@@]3(C)C2CCC3[C@H](C)CCC(F)(F)C(C)(C)O)C[C@H]1O` (stereo partly drawn) [Compound 3, (20R)-1α,25-Dihydroxy-24,24-difluoro-2-methylene-19-norvitamin D3], the melting point – broadly, the temperature, or range, at which the solid turns liquid – is 163 to 164 °C. In data set [3], the Ki is 40 pM and the VDR binding ratio stood at 1. Also, in data set [1], the EC50 came out at 10 pM and the “24OHase transcription Ratio” value turned out to be 20. In data set [5], the “bone calcium mobilization activity, in words” value was “not as potent in vivo as analogues 4 and 6”. Besides, in the data set with HL-60 promyelocytes, the HL-60 differentiation ratio came to 30 and the “HL-60 differentiation activity, in words” value is given as “high potency”.

On to `C=C1[C@H](O)CC(=C/C=C2\CCC[C@@]3(C)C2CCC3[C@@H](C)CCC(F)(F)C(C)(C)O)C[C@H]1O` (stereo partly drawn) [Compound 4, (20S)-1α,25-Dihydroxy-24,24-difluoro-2-methylene-19-norvitamin D3], for which, in data set [3], the inhibitory constant (Ki) was 30 pM and the VDR binding ratio is reported as 1.3. In data set [1], the EC50 worked out at 20 pM and the “24OHase transcription Ratio” value was determined as 10. Further, the “24-OHase (CYP24A1) transcriptional activity, in words” value in data set [1] (compared with 1α,25-(OH)2D3 or 2MD) is given as “almost as active as 2MD”. In addition, the “bone calcium mobilization activity, in words” value in data set [5] was “highest bone mobilization activity”. Besides, the “bone calcium mobilization activity, in words” value in data set [5] (listed as 24,24-difluoro substituted 19-nor-20S-2-methylene-1α,25-(OH)2D3) is “bone calcium mobilization activity rivaling 2-methylene-19-nor-(20S)-1,25-dihydroxyvitamin D3 or 2MD”. In the data set on HL-60 promyelocytes, the HL-60 differentiation ratio turned out to be 100.

In the case of `C[C@H](CCC(F)(F)C(C)(C)O)C1CCC2/C(=C/C=C3C[C@@H](O)C[C@H](O)C3)CCC[C@@]21C` (stereo partly drawn) [Compound 5, (20R)-1α,25-Dihydroxy-24,24-difluoro-19-norvitamin D3], the melting point fell in the range of 182 to 183 °C. In data set [3], the inhibitory constant (Ki) is 20 pM and the VDR binding ratio was determined as 2. In data set [3] (compared with 1α,25-(OH)2D3), the “VDR binding, in words” value is given as “slightly more effective than 1α,25-(OH)2D3”. Also, in data set [1], the EC50 was found to be 40 pM and the “24OHase transcription Ratio” value is 5. Besides, the “bone calcium mobilization activity, in words” value in data set [5] was “not as potent in vivo as analogues 4 and 6”. In addition, in the data set with HL-60 promyelocytes, the HL-60 differentiation ratio came out at 60 and the “HL-60 differentiation activity, in words” value is reported as “high potency”.

In the case of `C[C@@H](CCC(F)(F)C(C)(C)O)C1CCC2/C(=C/C=C3C[C@@H](O)C[C@H](O)C3)CCC[C@@]21C` (stereo partly drawn) [Compound 6, (20S)-1α,25-Dihydroxy-24,24-difluoro-19-norvitamin D3], in data set [3], the Ki came out at 30 pM and the VDR binding ratio was 1.3. Further, in data set [1], the EC50 stood at 40 pM and the “24OHase transcription Ratio” value is recorded as 5. For the same compound, the “bone calcium mobilization activity, in words” value in data set [5] is recorded as “highest bone mobilization activity”. The HL-60 differentiation ratio in the data set with HL-60 promyelocytes amounted to 50.
